Experimental data: patent publication US10683279B2, “Apoptosis signal-regulating kinase 1 inhibitors and methods of use thereof” (Enanta Pharmaceuticals, Inc., priority 2017, dated 2020)

Target: ASK1 (Homo sapiens (Human), UniProt Q99683)
Experiment: ASK1 kinase inhibition, HTRF KinEASE Assay System (TR-FRET)
Assay type: biochemical
Conditions: 5 nM ASK1 kinase, 1 uM STK3 peptide substrate, 100 uM ATP, 3 hours
Method: The ability (IC50) of compounds to inhibit ASK1 kinase activity was determined by HTRF® KinEASE™ Assay System.
ASK1 was purchased from Thermofisher (Catalogue # PV401.1), ATP was purchased from Sigma (Catalogue # A7699), HTRF® KinEASE™ Assay System was obtained from Cisbio (Bedford, Mass). ½ Area plate was purchased from Perkin Elmer (Catalogue # #6005560). HTRF® KinEASE™-STK is a generic method for measuring serine/threonine kinase activities using a time-resolved fluorescence resonance energy transfer (TR-FRET) immunoassay. The IC50 value for each compound was determined in the presence of compound (various concentration from 0 to 10 μM) and a fixed amount of ATP and peptide substrates. The test compound, luM STK3 peptide substrate, and 5 nM of ASK1 kinase are incubated with kinase reaction buffer containing 50 mM HEPES pH 7.5, 0.01% BRIJ-35, 10 mM MgCl2, and 1 mM EGTA for 30 minutes. 100 uM ATP is added to start kinase reaction and incubated for 3 hours. The STK3-antibody labeled with Eu^3+-Cryptate and 125 nM streptavidin-XL665 are mixed in a single addition with stop reagents provided by the Cisbio kit used to stop the kinase reaction. Fluorescence is detected using an Envision Multilabeled 2014 reader from PerkinElmer. The Fluorescence is measured at 615 nm (Cryptate) and 665 nm (XL665) and a ratio of 665 nm/615 nm is calculated for each well. The resulting TR-FRET is proportional to the phosphorylation level. Staurosporine was used as the positive control. IC50 was determined by XLfit 5.3.
By using above method, the inhibition of ASK1 was tested for the compound of formula (I). IC50 ranges are as follows: A<1 nM; 1 nM<B<10 nM; 10 nM<C<100 nM; 100 nM<D

ASK1, sequence (Q99683 whole entry): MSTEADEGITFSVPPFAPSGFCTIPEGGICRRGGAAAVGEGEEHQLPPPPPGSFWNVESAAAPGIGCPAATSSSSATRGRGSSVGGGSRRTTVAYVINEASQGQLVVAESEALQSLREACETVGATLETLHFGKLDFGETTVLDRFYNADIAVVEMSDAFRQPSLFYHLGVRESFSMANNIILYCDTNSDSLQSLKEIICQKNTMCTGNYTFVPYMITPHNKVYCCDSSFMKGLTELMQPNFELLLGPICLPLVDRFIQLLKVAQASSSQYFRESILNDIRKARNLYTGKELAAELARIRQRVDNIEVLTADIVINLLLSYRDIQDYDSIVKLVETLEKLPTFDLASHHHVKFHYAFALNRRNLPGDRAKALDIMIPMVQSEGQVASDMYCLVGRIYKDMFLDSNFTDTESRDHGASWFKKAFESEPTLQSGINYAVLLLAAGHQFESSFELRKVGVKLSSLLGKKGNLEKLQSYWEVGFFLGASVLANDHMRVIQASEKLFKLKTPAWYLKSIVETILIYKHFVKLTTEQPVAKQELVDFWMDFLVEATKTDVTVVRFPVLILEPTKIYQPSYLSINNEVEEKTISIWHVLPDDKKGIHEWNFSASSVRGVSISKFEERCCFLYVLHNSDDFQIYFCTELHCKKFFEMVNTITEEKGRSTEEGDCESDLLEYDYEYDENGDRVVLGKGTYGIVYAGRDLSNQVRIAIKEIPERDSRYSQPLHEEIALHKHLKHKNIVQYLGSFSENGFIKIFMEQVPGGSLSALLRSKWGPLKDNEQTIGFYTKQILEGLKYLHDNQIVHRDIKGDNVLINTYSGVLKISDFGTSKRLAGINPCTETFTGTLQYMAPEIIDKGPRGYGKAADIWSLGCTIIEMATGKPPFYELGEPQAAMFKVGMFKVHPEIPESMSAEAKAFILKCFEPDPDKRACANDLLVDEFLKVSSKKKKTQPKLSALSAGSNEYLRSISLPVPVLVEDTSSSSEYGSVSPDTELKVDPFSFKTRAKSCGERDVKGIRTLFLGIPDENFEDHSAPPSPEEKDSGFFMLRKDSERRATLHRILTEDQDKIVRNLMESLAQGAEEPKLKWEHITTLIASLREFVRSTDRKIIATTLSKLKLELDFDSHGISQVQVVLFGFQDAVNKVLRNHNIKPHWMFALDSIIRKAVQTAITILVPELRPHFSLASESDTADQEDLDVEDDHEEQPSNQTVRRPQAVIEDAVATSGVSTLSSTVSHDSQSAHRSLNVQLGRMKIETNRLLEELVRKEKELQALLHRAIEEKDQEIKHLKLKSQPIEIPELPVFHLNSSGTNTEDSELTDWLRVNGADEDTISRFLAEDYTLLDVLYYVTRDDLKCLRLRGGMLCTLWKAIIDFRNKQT

Structure (SMILES)	IC50 [µM]
CC(C)n1nnnc1-c1nc(NC(=O)c2cc(-n3cnc(C4CC4)c3)c(N3CCCCC3)cn2)cs1 [Example 41a]	0.01 to 0.1
Cc1cc(F)c(C(=O)Nc2cccc(-c3nnnn3C(C)C(F)(F)F)n2)cc1-n1cnc(C2CC2)c1 (centres unmarked) [Example 16a]	0.01 to 0.1
Cc1cnc(C(=O)Nc2cccc(-n3nnnc3C(C)C)n2)cc1-n1cnc(C(F)(F)F)c1 [Example 4b]	0.01 to 0.1
CC(C)n1nnnc1-c1cccc(NC(=O)c2cc(-n3cnc(C4CC4)c3)c(N3CCCCC3)cn2)n1 [Example 40a]	0.01 to 0.1
Cc1cnc(C(=O)Nc2cccc(-c3nnnn3C(C)C)n2)cc1-n1cnc(C2CC2)c1 [Example 48a]	0.01 to 0.1
C[C@H](CO)n1nnnc1-c1cccc(NC(=O)c2cc(-n3cnc(C4CC4)c3)c(CO)cc2F)n1 [Example 33a, (R)-5-(4-cyclopropyl-1H-imidazol-1-yl)-2-fluoro-4-(hydroxymethyl)-N-(6-(1-(1-hydroxypropan-2-yl)-1H-tetrazol-5-yl)pyridin-2-yl)benzamide]	0.001 to 0.01
Cc1cc(F)c(C(=O)Nc2cccc(-c3cnnn3C(C)C)n2)cc1-n1cnc(C2CC2)c1 [Example 4c, 5-(4-cyclopropyl-1H-imidazol-1-yl)-2-fluoro-N-(6-(1-isopropyl-1H-1,2,3-triazol-5-yl)pyridin-2-yl)-4-methylbenzamide]	0.01 to 0.1
Cc1cc(F)c(C(=O)Nc2cccc(-c3nnnn3[C@H](C)COC(=O)c3ccccc3)n2)cc1-n1cnc(C2CC2)c1 [Example 25a]	> 1
CC(=O)NC[C@@H](C)n1nnnc1-c1cccc(NC(=O)c2cc(-n3cnc(C4CC4)c3)c(C)cc2F)n1 [Example 20a]	0.01 to 0.1
Cc1cc(F)c(C(=O)Nc2ccnc(-c3nnnn3C(C)C)n2)cc1-n1cnc(C2CC2)c1 [Example 34a]	0.01 to 0.1
CC(C)n1nnnc1-c1cccc(NC(=O)c2cc(-n3cnc(C4CC4)c3)c(C(F)F)cc2F)n1 [Example 31a, 5-(4-cyclopropyl-1H-imidazol-1-yl)-4-(difluoromethyl)-2-fluoro-N-(6-(1-isopropyl-1H-tetrazol-5-yl)pyridin-2-yl)benzamide]	0.001 to 0.01
CCCC(=O)OC[C@@H](C)n1nnnc1-c1cccc(NC(=O)c2cc(-n3cnc(C4CC4)c3)c(C)cc2F)n1 [Example 24a]	0.01 to 0.1
Cc1cc(F)c(C(=O)Nc2cccc(-c3nnnn3C(C)C)c2)cc1-n1cnc(C2CC2)c1 [Example 35a]	0.01 to 0.1
Cc1cc(F)c(C(=O)Nc2cccc(-n3nnnc3C(C)C)n2)cc1-n1cnc(C(F)(F)F)c1 [Example 2b]	> 0.1
CC(C)n1nnnc1-c1nc(NC(=O)c2cc(-n3cnc(C4CC4)c3)c(F)cn2)cs1 [Example 38a]	0.001 to 0.01
CC(=O)OC[C@@H](C)n1nnnc1-c1cccc(NC(=O)c2cc(-n3cnc(C4CC4)c3)c(C)cc2F)n1 [Example 6a, (R)-2-(5-(6-(5-(4-cyclopropyl-1H-imidazol-1-yl)-2-fluoro-4-methyl-benzamido)pyridin-2-yl)-1H-tetrazol-1-yl)propyl acetate]	> 0.1
Cc1cnc(C(=O)Nc2cccc(-c3nnnn3C(C)C)n2)cc1-n1cnc(C(F)(F)F)c1 [Example 50a]	0.001 to 0.01
CC(C)n1nnnc1-c1nc(NC(=O)c2cc(-n3cnc(C4CC4)c3)c(C(F)F)cn2)cs1 [Example 56a]	0.001 to 0.01
Cc1cc(F)c(C(=O)Nc2cccc(-c3nnnn3C3CCCC3)n2)cc1-n1cnc(C2CC2)c1 [Example 8a]	0.001 to 0.01
C[C@H](CO)n1nnnc1-c1cccc(NC(=O)c2cc(-n3cnc(C4CC4)c3)c(C(F)(F)F)cn2)n1 [Example 58a]	0.001 to 0.01
Cc1cc(F)c(C(=O)Nc2cccc(-c3nnnn3[C@@H](C)CF)n2)cc1-n1cnc(C2CC2)c1 [Example 15a]	0.001 to 0.01
Cc1cnc(C(=O)Nc2cccc(-n3nnnc3C(C)C)n2)cc1-n1cnc(C2CC2)c1 [Example 3b]	0.001 to 0.01
Cc1cc(F)c(C(=O)Nc2cccc(-c3nnnn3[C@H](C)CO)n2)cc1-n1cnc(C2CC2)c1 [Example 7a, (R)-5-(4-cyclopropyl-1H-imidazol-1-yl)-2-fluoro-N-(6-(1-(1-hydroxypropan-2-yl)-1H-tetrazol-5-yl)pyridin-2-yl)-4-methylbenzamide]	0.001 to 0.01
Cc1cc(F)c(C(=O)Nc2cccc(-c3nnnn3CC(C)(C)C)n2)cc1-n1cnc(C2CC2)c1 [Example 13a]	0.001 to 0.01

Next, values leading:

IC50 [µM]	Structure (SMILES)
0.001 to 0.01	Cc1cnc(C(=O)Nc2cccc(-c3nnnn3[C@H](C)CO)n2)cc1-n1cnc(C(F)(F)F)c1 [Example 51a]
0.001 to 0.01	CC(C)n1nnnc1-c1cccc(NC(=O)c2cc(-n3cnc(C4CC4)c3)c(N3CCOCC3)cn2)n1 [Example 46a]
0.001 to 0.01	Cc1cnc(C(=O)Nc2cccc(-c3nnnn3[C@H](C)CO)n2)cc1-n1cnc(C2CC2)c1 [Example 49a]
0.001 to 0.01	CC(C)n1nnnc1-c1cccc(NC(=O)c2cc(-n3cnc(C4CC4)c3)c(C(F)(F)F)cn2)n1 [Example 57a]
0.001 to 0.01	Cc1cc(F)c(C(=O)Nc2cccc(-c3nnnn3C(C)C)n2)cc1-n1cnc(C2CC2)c1 [Example 1a, 5-(4-cyclopropyl-1H-imidazol-1-yl)-2-fluoro-N-(6-(1-isopropyl-1H-tetrazol-5-yl)pyridin-2-yl)-4-methylbenzamide]
0.001 to 0.01	CC(C)n1nnnc1-c1nc(NC(=O)c2cc(-n3cnc(C4CC4)c3)c(N3CCCC3)cn2)cs1 [Example 42a]
0.001 to 0.01	COc1cc(C)c(-n2cnc(C3CC3)c2)cc1C(=O)Nc1cccc(-c2nnnn2C(C)C)n1 [Example 60a]
0.001 to 0.01	Cc1cc(F)c(C(=O)Nc2cccc(-c3nnnn3[C@H](C)CO)n2)cc1-n1cnc(C(F)(F)F)c1 [Example 28a]
0.001 to 0.01	COc1cc(C)c(-n2cnc(C3CC3)c2)cc1C(=O)Nc1cccc(-c2nnnn2[C@H](C)CO)n1 [Example 61a]
0.001 to 0.01	Cc1cc(F)c(C(=O)Nc2cccc(-c3nnnn3[C@H](C)CF)n2)cc1-n1cnc(C2CC2)c1 [Example 14a]
0.001 to 0.01	Cc1cc(F)c(C(=O)Nc2cccc(-n3nnnc3C(C)C)n2)cc1-n1cnc(C(C)(C)C)c1 [Example 6b]
0.001 to 0.01	Cc1cc(F)c(C(=O)Nc2cccc(-c3nnnn3[C@H](C)CCO)n2)cc1-n1cnc(C2CC2)c1 [Example 22a]
0.001 to 0.01	CC(C)n1nnnc1-c1cccc(NC(=O)c2cc(-n3cnc(C4CC4)c3)c(N3CCCC3)cn2)n1 [Example 43a]
0.001 to 0.01	Cc1cc(F)c(C(=O)Nc2cccc(-c3nnnn3[C@@H]3CCOC3)n2)cc1-n1cnc(C2CC2)c1 [Example 17a]
0.001 to 0.01	Cc1cnc(C(=O)Nc2cccc(-n3nnnc3C(C)C)n2)cc1-n1cnc(C(C)(C)C)c1 [Example 5b]
0.001 to 0.01	Cc1cnc(C(=O)Nc2cccc(-c3nnnn3[C@H](C)CO)n2)cc1-n1cnc(C(C)(C)C)c1 [Example 53a]
0.001 to 0.01	C[C@H](CO)n1nnnc1-c1cccc(NC(=O)c2cc(-n3cnc(C4CC4)c3)c(C(F)F)cc2F)n1 [Example 32a]
0.001 to 0.01	Cc1cc(F)c(C(=O)Nc2cccc(-c3nnnn3C3CC3)n2)cc1-n1cnc(C2CC2)c1 [Example 2a, 5-(4-cyclopropyl-1H-imidazol-1-yl)-2-fluoro-N-(6-(1-cyclopropyl-1H-tetrazol-5-yl)pyridin-2-yl)-4-methylbenzamid]
0.001 to 0.01	Cc1cc(F)c(C(=O)Nc2cccc(-c3nnnn3[C@@H](C)CO)n2)cc1-n1cnc(C2CC2)c1 [Example 5a, (S)-5-(4-cyclopropyl-1H-imidazol-1-yl)-2-fluoro-N-(6-(1-(1-hydroxypropan-2-yl)-1H-tetrazol-5-yl)pyridin-2-yl)-4-methylbenzamide]
0.001 to 0.01	CC(C)n1nnnc1-c1nc(NC(=O)c2cc(-n3cnc(C4CC4)c3)c(C(F)(F)F)cn2)cs1 [Example 59a]
0.001 to 0.01	CC(=O)OCC[C@@H](C)n1nnnc1-c1cccc(NC(=O)c2cc(-n3cnc(C4CC4)c3)c(C)cc2F)n1 [Example 23a]
0.001 to 0.01	Cc1cc(F)c(C(=O)Nc2cccc(-c3nnnn3C3CC(F)(F)C3)n2)cc1-n1cnc(C2CC2)c1 [Example 11a]
0.001 to 0.01	Cc1cc(F)c(C(=O)Nc2cccc(-c3nnnn3C3(C)CC3)n2)cc1-n1cnc(C2CC2)c1 [Example 3a, 5-(4-cyclopropyl-1H-imidazol-1-yl)-2-fluoro-N-(6-(1-(1-methylcyclo-propyl)-1H-tetrazol-5-yl)pyridin-2-yl)-4-methylbenzamide]
0.001 to 0.01	Cc1cnc(C(=O)Nc2cccc(-c3nnnn3C(C)C)n2)cc1-n1cnc(C(C)(C)C)c1 [Example 52a]
0.001 to 0.01	CC(=O)OC[C@H](C)n1nnnc1-c1cccc(NC(=O)c2cc(-n3cnc(C4CC4)c3)c(C)cc2F)n1 [Example 4a, (S)-2-(5-(6-(5-(4-cyclopropyl-1H-imidazol-1-yl)-2-fluoro-4-methyl-benzamido)pyridin-2-yl)-1H-tetrazol-1-yl)propyl acetate]
0.001 to 0.01	Cc1cc(F)c(C(=O)Nc2cccc(-n3nnnc3C(C)C)n2)cc1-n1cnc(C2CC2)c1 [Example 1b, 5-(4-cyclopropyl-1H-imidazol-1-yl)-2-fluoro-N-(6-(5-isopropyl-1H-tetrazol-1-yl)pyridin-2-yl)-4-methylbenzamide]
